PubChem BioAssay (NCI)
Several values for one entry are separate records, joined by “and”; a condition that tells them apart may be missing. Identical values can stand only once.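 Growth conditions: 96-well plates. Treatment: test compound, 48 hours, 5 concentrations. Analysis: linear interpolation between bracketing concentrations; unreached endpoints set to highest concentration. GI50 is the concentration that inhibits growth by half. TGI marks complete inhibition of growth.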

Assays:
Assay in all cases: NCI anticancer screen, dose series, 48 h
CAKI-1 renal = test system: CAKI-1 renal
HL-60(TB) leukemia = test system: HL-60(TB) leukemia
M14 melanoma = test system: M14 melanoma
OVCAR-5 ovarian = test system: OVCAR-5 ovarian
RXF 393 renal = test system: RXF 393 renal
SF-268 CNS = test system: SF-268 CNS
SF-539 CNS = test system: SF-539 CNS
SK-MEL-28 melanoma = test system: SK-MEL-28 melanoma
U251 CNS = test system: U251 CNS
EKVX NSCLC = test system: EKVX NSCLC

With O=C1/C(=C/c2ccc([N+](=O)[O-])o2)Oc2ccccc21 the GI50 (CAKI-1 renal) was 0.758 µM, the TGI (CAKI-1 renal) was 2.17 µM and the GI50 (HL-60(TB) leukemia) was 1.33 µM. The TGI (HL-60(TB) leukemia) was 3.89 µM, the GI50 (M14 melanoma) was 1.69 µM and the TGI (M14 melanoma) was 3.88 µM. It also gave a GI50 (OVCAR-5 ovarian) of 1.85 µM, a TGI (OVCAR-5 ovarian) of 3.5 µM and a GI50 (RXF 393 renal) of 1.61 µM. It also gave a TGI (RXF 393 renal) of 3.24 µM, a GI50 (SF-268 CNS) of 2.19 µM and a TGI (SF-268 CNS) of 5.86 µM. For the same compound, the GI50 (SF-539 CNS) was 1.87 µM, the TGI (SF-539 CNS) was 4.14 µM and the GI50 (SK-MEL-28 melanoma) was 1.65 µM. For the same compound, the TGI (SK-MEL-28 melanoma) was 3.2 µM, the GI50 (U251 CNS) was 1.96 µM and the TGI (U251 CNS) was 4.66 µM.

For COc1ccc2c(c1)C(=O)/C(=C/c1ccc([N+](=O)[O-])s1)O2, the GI50 (CAKI-1 renal) was 2.19 µM, the TGI (CAKI-1 renal) was > 100 µM and the GI50 (HL-60(TB) leukemia) was 0.713 µM. The TGI (HL-60(TB) leukemia) was > 26.1 µM, the GI50 (M14 melanoma) was 0.358 µM and the TGI (M14 melanoma) was 1.31 µM. For the same compound, the GI50 (OVCAR-5 ovarian) was 1.6 µM, the TGI (OVCAR-5 ovarian) was 3.34 µM and the GI50 (RXF 393 renal) was 0.284 µM. It also gave a TGI (RXF 393 renal) of 0.926 µM, a GI50 (SF-268 CNS) of 0.268 µM and a TGI (SF-268 CNS) of 0.66 µM. It also gave a GI50 (SF-539 CNS) of 0.352 µM, a TGI (SF-539 CNS) of 1.41 µM and a GI50 (SK-MEL-28 melanoma) of 0.248 µM. The TGI (SK-MEL-28 melanoma) was 0.689 µM, the GI50 (U251 CNS) was 0.287 µM and the TGI (U251 CNS) was 0.943 µM.

For O=C(Nc1ccc([N+](=O)[O-])cc1C(=O)O)c1ccc([N+](=O)[O-])cc1, the TGI (EKVX NSCLC) was > 100 µM, the TGI (HL-60(TB) leukemia) was 56.7 µM and the TGI (M14 melanoma) was > 100 µM. The TGI (OVCAR-5 ovarian) was > 100 µM, the TGI (SF-268 CNS) was > 100 µM and the TGI (SF-539 CNS) was > 100 µM. For the same compound, the TGI (SK-MEL-28 melanoma) was > 100 µM and the TGI (U251 CNS) was > 100 µM.

For CCOC(=O)N[C@H]1CCc2cc(O)c(OC)c(OC)c2-c2ccc(SC)c(=O)cc21, the TGI (CAKI-1 renal) was > 65.3 µM, the TGI (EKVX NSCLC) was > 100 µM and the TGI (M14 melanoma) was 51.5 µM. The TGI (OVCAR-5 ovarian) was > 100 µM, the TGI (RXF 393 renal) was 0.0207 µM and the TGI (SF-268 CNS) was 37.8 µM. The TGI (SF-539 CNS) was 0.044 µM, the TGI (SK-MEL-28 melanoma) was > 100 µM and the TGI (U251 CNS) was > 6.92 µM.

In the case of c1ccc2c(Nc3ccc(Oc4ccc(Nc5c6ccccc6nc6ccccc56)cc4)cc3)c3ccccc3nc2c1, the GI50 (CAKI-1 renal) is reported as 1.82 µM, the TGI (CAKI-1 renal) is reported as 3.22 µM and 3.01 µM and the GI50 (EKVX NSCLC) is reported as 2.5 µM. For the same compound, the TGI (EKVX NSCLC) was 5.17 µM and 4.63 µM, the TGI (M14 melanoma) was 1.05 µM and the TGI (OVCAR-5 ovarian) was 1.06 µM. For the same compound, the GI50 (RXF 393 renal) was 1.56 µM, the TGI (RXF 393 renal) was 3.87 µM and > 27.2 µM and the GI50 (SF-268 CNS) was 0.758 µM. For the same compound, the TGI (SF-268 CNS) was 2.81 µM and 4.88 µM, the GI50 (SF-539 CNS) was 2.1 µM and 1.65 µM and the TGI (SF-539 CNS) was 3.91 µM and 3.32 µM. For the same compound, the GI50 (SK-MEL-28 melanoma) was 1.44 µM, the GI50 (U251 CNS) was 0.0212 µM and 0.145 µM and the TGI (U251 CNS) was 0.0762 µM and 0.276 µM.

C#C[C@@]1(O)CCCC2=CC(=O)C[C@]21C was tested, and the TGI (EKVX NSCLC) was > 100 µM, the TGI (HL-60(TB) leukemia) was > 100 µM and the TGI (M14 melanoma) was > 100 µM. The TGI (OVCAR-5 ovarian) was > 100 µM, the TGI (RXF 393 renal) was > 100 µM and the TGI (SF-268 CNS) was > 100 µM. The TGI (SF-539 CNS) was > 100 µM, the TGI (SK-MEL-28 melanoma) was > 100 µM and the TGI (U251 CNS) was > 100 µM.

With C=C(C)[C@@H]1CC[C@]2(C(=O)O)CC[C@]3(C)[C@H](CC[C@@H]4[C@@]5(C)C[C@@H](CC#Cc6ccc(Br)cc6)C(=O)C(C)(C)[C@@H]5CC[C@]43C)[C@@H]12 the GI50 (CAKI-1 renal) was 15.6 µM, the TGI (CAKI-1 renal) was > 100 µM and the GI50 (HL-60(TB) leukemia) was 22.4 µM. For the same compound, the TGI (HL-60(TB) leukemia) was > 100 µM, the GI50 (M14 melanoma) was 2.67 µM and the TGI (M14 melanoma) was 12.2 µM. For the same compound, the GI50 (OVCAR-5 ovarian) was 94.3 µM, the TGI (OVCAR-5 ovarian) was > 100 µM and the GI50 (RXF 393 renal) was 5.5 µM. For the same compound, the TGI (RXF 393 renal) was 21.8 µM, the GI50 (SF-268 CNS) was 6.23 µM and the TGI (SF-268 CNS) was > 100 µM. The GI50 (SF-539 CNS) was 22.5 µM, the TGI (SF-539 CNS) was > 100 µM and the GI50 (SK-MEL-28 melanoma) was 2.62 µM. It also gave a TGI (SK-MEL-28 melanoma) of 8.25 µM, a GI50 (U251 CNS) of 2.12 µM and a TGI (U251 CNS) of 6.72 µM.

CO/N=C(\COc1ccc2c(c1)oc(=O)c1cc(OC)ccc12)c1cccc(OC)c1 was tested, and the GI50 (CAKI-1 renal) was > 100 µM, the TGI (CAKI-1 renal) was > 100 µM and the GI50 (EKVX NSCLC) was > 100 µM. For the same compound, the TGI (EKVX NSCLC) was > 100 µM, the GI50 (M14 melanoma) was > 100 µM and the TGI (M14 melanoma) was > 100 µM. The GI50 (OVCAR-5 ovarian) was > 100 µM, the TGI (OVCAR-5 ovarian) was > 100 µM and the GI50 (RXF 393 renal) was > 100 µM. For the same compound, the TGI (RXF 393 renal) was > 100 µM, the GI50 (SF-268 CNS) was > 100 µM and the TGI (SF-268 CNS) was > 100 µM. The GI50 (SF-539 CNS) was > 100 µM, the TGI (SF-539 CNS) was > 100 µM and the GI50 (SK-MEL-28 melanoma) was > 100 µM. The TGI (SK-MEL-28 melanoma) was > 100 µM, the GI50 (U251 CNS) was > 100 µM and the TGI (U251 CNS) was > 100 µM.
